A short description of test [1]: Diuretic effect on rats: urinary volume during a 5 hour period after oral administration. Conditions: 3 mg/kg oral; for Urine discharge (in words): Wister male rats; for Urinary volume relative to control: starved rats, 5 hour period after administration, control taken as 100%. Format: in vivo, Wister male rats. On the procedure: About 16 hours before oral administration with 3 mg/kg of the compounds, the rats were starved, with only water available. The urinary volume during a 5 hour period after administration was compared with that of the control groups, taking the urinary volume of the latter as 100%.

Test [2] deals with Carrageenan-Induced Edema in Rat Paws. The experiment in a line: Anti-inflammatory effect on carrageenan-induced edema in rat paws (oral). Type of test: in vivo, Wister male rats. The settings on record: for % Inhibition of Foot Edema: 1 hour before carrageenan, swelling at third hour, control taken as 100%; for Inhibition of carrageenan-induced edema (in words): oral, Wister male rats. On the procedure:
One hour after oral administration with these compounds, the rats were subcutaneously injected with 0.1 m of 1% carrageenan suspension on the plantar surface of the right hind foot. The swelling was measured at the third hour of carrageenan injection. Anti-inflammatory effect of the compounds was determined as percentage inhibition of the swelling, taking the swelling in the control groups as 100%.
On the technique in general: In the carrageenan paw model, swelling and tenderness develop within hours.

As to `CN(C)Cc1cc2c(c(I)c1O)CCCC2.Cl` [1-Iodo-3-(N,N-dimethylaminomethyl)-5,6,7,8-tetrahydro-2-naphthol Hydrochloride], in test [1], the “Urine discharge (in words)” value is reported as “discharged increased amounts of urine” and the “Urinary volume relative to control” value is 232%.
The corresponding values for `CC1CCc2c1cc(CN)c(O)c2I.Cl` (stereo not shown) [1-Methyl-4-iodo-6-aminomethyl-5-indanol hydrochloride] are “discharged increased amounts of urine” and 208%.
On to `Br.NCc1c(O)c(I)cc2c1CCCC2` [1-Aminomethyl-3-iodo-5,6,7,8-tetrahydro-2-naphthol Hydrobromide], for which, in test [2] (10 mg/kg oral), the “% Inhibition of Foot Edema” value amounted to 55.6%. Moreover, the “% Inhibition of Foot Edema” value in test [2] (30 mg/kg oral) came to 68.8%. For the same compound, the “Inhibition of carrageenan-induced edema (in words)” value (shortened to “Inhibition … (in words)”) in test [2] is on record as “had carrageenan-induced edema in their paws inhibited”. In test [1], the “Urine discharge (in words)” value is given as “discharged increased amounts of urine” and the “Urinary volume relative to control” value turned out to be 142%.
Regarding `CC1(C)CCCc2c1cc(CN)c(O)c2I.Cl` [1-Iodo-3-aminomethyl-5,5-dimethyl-5,6,7,8-tetrahydro-2-naphthol Hydrochloride], the “% Inhibition of Foot Edema” value was 44.1% in test [2] (10 mg/kg oral) and 66.3% in test [2] (30 mg/kg oral). Moreover, the “Inhibition … (in words)” value in test [2] is on record as “had carrageenan-induced edema in their paws inhibited”.
`Cl.NCc1cc2c(c(I)c1O)CCC2` [4-Iodo-6-aminomethyl-5-indanol Hydrochloride]: in test [2] (10 mg/kg oral), the “% Inhibition of Foot Edema” value is recorded as 41.1%. Moreover, the “% Inhibition of Foot Edema” value in test [2] (30 mg/kg oral) was 55.8%. In addition, in test [2], the “Inhibition … (in words)” value is “had carrageenan-induced edema in their paws inhibited”. Further, in test [1], the “Urine discharge (in words)” value was “discharged increased amounts of urine” and the “Urinary volume relative to control” value is given as 138%.
The corresponding values for `Br.NCc1cc2c(c(I)c1O)CCCC2` [1-Iodo-3-aminomethyl-5,6,7,8-tetrahydro-2-naphthol Hydrobromide] are 68.8%, 69.6%, “had carrageenan-induced edema in their paws inhibited”, “discharged increased amounts of urine” and 226%.

Source of the values: patent US4254056A, “2-Aminomethyl phenol derivative and process for preparing thereof” (Ono Pharmaceutical Co., Ltd., priority 1977, dated 1981).
